In PMC12650660, “Novel Synthetic Strategies Towards Analogues of Cadaside and Malacidin Antibiotic Peptides” (Biomolecules, 2025):

Columns and labels:
[1] = set-up: key: “+” indicates binding confirmed; “-” indicates no binding; “~” indicates potential binding with absence of precursor band; details: Table S2; ref SI [7], [9], [10]; cited from earlier work
Description: page 11: Table S2: Summary of the ability of CDAs to bind cell wall synthesis precursors, as well as tendency to induce membrane depolarisation. “+” indicates binding, “-” indicates no binding, “n.d.” indicates binding has not been determined. * indicates binding occurs in the presence of phosphatidylglycerol. Peptide C -P C-PP Lipid I Lipid II Membrane 55 55 Depolarisation Daptomycin [1]–[4] + * + * n.d. + * + A54145 [5] n.d. n.d. n.d. n.d. + Tsushimycin [4] + n.d. n.d. n.d. n.d. Laspartomycin [6] + n.d. n.d. n.d. - Friulimicin [7] + - - - - Taromycin n.d. n.d. n.d. n.d. n.d. Amphomycin [9], ...

[2] = head-to-tail type lactamisation of side-chain-protected branched depsipeptide (Gly10 N-terminus of ester branch + C-terminal Pro9), HATU/DIPEA (pH ~10), microwave; details: the molecule shown is the open-chain precursor; 28-membered ring; DCM; 6.0 mM; 70.0 °C; 1.0 h
[3] = tail-to-side-chain lactamisation of side-chain-protected peptide (Dap2 beta-NH2 + C-terminal Pro), HATU/DIPEA, microwave; details: the molecule shown is the open-chain precursor; 28-membered ring; DCM; 6.0 mM; 70.0 °C; 1.0 h

Row | Compound | Lipid I binding (reported) [1] | further results
1 | Amphomycin | - | 
2 | Friulimicin | - | 
3 | CCCCCCCCCC(=O)NC[C@@H](C)C(=O)NCC(=O)N[C@H](CCC(=O)OC(C)(C)C)C(=O)N[C@@H](Cc1ccc(OC(C)(C)C)cc1)C(=O)N[C@H](C(=O)N[C@@H](C(=O)N[C@@H](CC(=O)OC(C)(C)C)C(=O)N[C@@H](CC(=O)OC(C)(C)C)C(=O)N1CCC[C@H]1C(=O)O)[C@H](C)CC)[C@@H](C)OC(=O)CN(C)C(=O)[C@H](CCC(=O)OC(C)(C)C)NC(=O)[C@H](CC(=O)OC(C)(C)C)NC(=O)CN |  | ring closure, overall yield [2]: 0.2%
4 | CCCCCCCCCC(=O)N[C@@H](CC(=O)OC(C)(C)C)C(=O)N[C@@H](CN)C(=O)N[C@@H](C(=O)N[C@@H](CCCCNC(=O)OC(C)(C)C)C(=O)N[C@@H](CC(=O)OC(C)(C)C)C(=O)N[C@@H](CC(=O)OC(C)(C)C)C(=O)N(CC(=O)N[C@H](CC(=O)OC(C)(C)C)C(=O)N[C@H](C(=O)N1CCC[C@H]1C(=O)O)C(C)C)Cc1ccc(OC)cc1OC)C(C)C |  | ring closure, overall yield [3]: 1.3%
